Laboratory results reported in PubChem BioAssay (NCI).
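Exposure lasted 48 hours, with cells grown in 96-well plates and compounds tested at five concentrations. The concentration for full growth arrest is given as TGI.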 Where a SMILES comes first, the peptide text is derived from it. The star is where a group is joined. Boc = CC(C)(C)OC(=O)*

Legend:
Assay in all cases: DTP human tumour cell line panel, 48 h
A498 renal = system: A498 renal
A549 NSCLC = system: A549 NSCLC
ACHN renal = system: ACHN renal
BT-549 breast = system: BT-549 breast
CAKI-1 renal = system: CAKI-1 renal
CCRF-CEM leukemia = system: CCRF-CEM leukemia
COLO 205 colon = system: COLO 205 colon
DU-145 prostate = system: DU-145 prostate
EKVX NSCLC = system: EKVX NSCLC
HCC-2998 colon = system: HCC-2998 colon
HCT-116 colon = system: HCT-116 colon
HCT-15 colon = system: HCT-15 colon
HL-60(TB) leukemia = system: HL-60(TB) leukemia
HOP-62 NSCLC = system: HOP-62 NSCLC
HOP-92 NSCLC = system: HOP-92 NSCLC
HS 578T breast = system: HS 578T breast
HT29 colon = system: HT29 colon
IGROV1 ovarian = system: IGROV1 ovarian
K-562 leukemia = system: K-562 leukemia
KM12 colon = system: KM12 colon
LOX IMVI melanoma = system: LOX IMVI melanoma
M14 melanoma = system: M14 melanoma
MALME-3M melanoma = system: MALME-3M melanoma
MCF7 breast = system: MCF7 breast
MDA-MB-231 breast = system: MDA-MB-231 breast
MDA-MB-435 = system: MDA-MB-435
MDA-N = system: MDA-N
NCI-H226 lung = system: NCI-H226 lung
NCI-H23 lung = system: NCI-H23 lung
NCI-H460 lung = system: NCI-H460 lung
NCI-H522 lung = system: NCI-H522 lung
NCI/ADR-RES ovarian = system: NCI/ADR-RES ovarian
OVCAR-3 ovarian = system: OVCAR-3 ovarian
OVCAR-4 ovarian = system: OVCAR-4 ovarian
OVCAR-5 ovarian = system: OVCAR-5 ovarian
OVCAR-8 ovarian = system: OVCAR-8 ovarian
PC-3 prostate = system: PC-3 prostate
RPMI-8226 leukemia = system: RPMI-8226 leukemia
RXF 393 renal = system: RXF 393 renal
SF-268 CNS = system: SF-268 CNS
SF-295 CNS = system: SF-295 CNS
SF-539 CNS = system: SF-539 CNS
SK-MEL-2 melanoma = system: SK-MEL-2 melanoma
SK-MEL-28 melanoma = system: SK-MEL-28 melanoma
SK-MEL-5 melanoma = system: SK-MEL-5 melanoma
SK-OV-3 ovarian = system: SK-OV-3 ovarian
SN12C renal = system: SN12C renal
SNB-19 CNS = system: SNB-19 CNS
SNB-75 CNS = system: SNB-75 CNS
SR leukemia = system: SR leukemia
SW-620 colon = system: SW-620 colon
T-47D breast = system: T-47D breast
U251 CNS = system: U251 CNS
UACC-257 melanoma = system: UACC-257 melanoma
UACC-62 melanoma = system: UACC-62 melanoma
UO-31 renal = system: UO-31 renal
786-0 renal = system: 786-0 renal
MOLT-4 leukemia = system: MOLT-4 leukemia
TK-10 renal = system: TK-10 renal

With `NC(=O)NC(=O)c1cccc(NC(=O)CI)c1` the TGI (A498 renal) was 805 nM, the TGI (A549 NSCLC) was 12.4 µM and the TGI (ACHN renal) was 1580 nM. It also gave a TGI (BT-549 breast) of 2440 nM, a TGI (CAKI-1 renal) of 662 nM and a TGI (CCRF-CEM leukemia) of 145 nM. The TGI (COLO 205 colon) was less than 0.01 µM, the TGI (DU-145 prostate) was 103 nM and the TGI (EKVX NSCLC) was 10.4 µM. It also gave a TGI (HCC-2998 colon) of 609 nM, a TGI (HCT-116 colon) of 106 nM and a TGI (HCT-15 colon) of 2060 nM. For the same compound, the TGI (HL-60(TB) leukemia) was less than 0.01 µM, the TGI (HOP-62 NSCLC) was 1160 nM and the TGI (HOP-92 NSCLC) was 1580 nM. For the same compound, the TGI (HS 578T breast) was 146 nM, the TGI (HT29 colon) was 60.7 nM and the TGI (IGROV1 ovarian) was 796 nM. It also gave a TGI (K-562 leukemia) of 1450 nM, a TGI (KM12 colon) of 18.5 µM and a TGI (LOX IMVI melanoma) of 395 nM. The TGI (M14 melanoma) was 408 nM, the TGI (MALME-3M melanoma) was 899 nM and the TGI (MCF7 breast) was 1560 nM. It also gave a TGI (MDA-MB-231 breast) of 866 nM, a TGI (MDA-MB-435) of 202 nM and a TGI (MDA-N) of 25.3 nM. For the same compound, the TGI (NCI-H226 lung) was 201 nM, the TGI (NCI-H23 lung) was 2040 nM and the TGI (NCI-H460 lung) was 286 nM. It also gave a TGI (NCI-H522 lung) of less than 0.01 µM, a TGI (NCI/ADR-RES ovarian) of 5.32 µM and a TGI (OVCAR-3 ovarian) of less than 0.01 µM. It also gave a TGI (OVCAR-4 ovarian) of 5.08 µM, a TGI (OVCAR-5 ovarian) of 2120 nM and a TGI (OVCAR-8 ovarian) of 188 nM. For the same compound, the TGI (PC-3 prostate) was 1350 nM, the TGI (RPMI-8226 leukemia) was 312 nM and the TGI (RXF 393 renal) was 2130 nM. It also gave a TGI (SF-268 CNS) of 71.7 nM, a TGI (SF-295 CNS) of 2680 nM and a TGI (SF-539 CNS) of 70.1 nM. The TGI (SK-MEL-2 melanoma) was 837 nM, the TGI (SK-MEL-28 melanoma) was 7.49 µM and the TGI (SK-MEL-5 melanoma) was 38.2 nM. For the same compound, the TGI (SK-OV-3 ovarian) was 1060 nM, the TGI (SN12C renal) was 326 nM and the TGI (SNB-19 CNS) was 14.7 µM. The TGI (SNB-75 CNS) was 1750 nM, the TGI (SR leukemia) was 416 nM and the TGI (SW-620 colon) was 2030 nM. It also gave a TGI (T-47D breast) of 4.3 µM, a TGI (U251 CNS) of 136 nM and a TGI (UACC-257 melanoma) of 438 nM. It also gave a TGI (UACC-62 melanoma) of 692 nM and a TGI (UO-31 renal) of 1440 nM.

`CC(NC(=O)OC(C)(C)C)C(=O)NC(Cc1ccccc1)C(=O)NCC(=O)O` (stereo not drawn) (Boc-Ala-Phe-Gly-OH; configuration not given here) gave a TGI (786-0 renal) greater than 100 µM, a TGI (A498 renal) greater than 100000 nM and a TGI (A549 NSCLC) greater than 100 µM. The TGI (ACHN renal) was greater than 100000 nM, the TGI (BT-549 breast) was greater than 100000 nM and the TGI (CAKI-1 renal) was greater than 100000 nM. For the same compound, the TGI (CCRF-CEM leukemia) was greater than 100000 nM, the TGI (COLO 205 colon) was greater than 100 µM and the TGI (DU-145 prostate) was greater than 100000 nM. For the same compound, the TGI (EKVX NSCLC) was greater than 100 µM, the TGI (HCC-2998 colon) was greater than 100000 nM and the TGI (HCT-116 colon) was greater than 100000 nM. It also gave a TGI (HCT-15 colon) greater than 100000 nM, a TGI (HL-60(TB) leukemia) greater than 100 µM and a TGI (HOP-62 NSCLC) greater than 100000 nM. It also gave a TGI (HOP-92 NSCLC) greater than 100000 nM, a TGI (HS 578T breast) greater than 100000 nM and a TGI (HT29 colon) greater than 100000 nM. It also gave a TGI (IGROV1 ovarian) greater than 100000 nM, a TGI (K-562 leukemia) greater than 100000 nM and a TGI (KM12 colon) greater than 100 µM. The TGI (LOX IMVI melanoma) was greater than 100000 nM, the TGI (M14 melanoma) was greater than 100000 nM and the TGI (MALME-3M melanoma) was greater than 100000 nM. It also gave a TGI (MCF7 breast) greater than 100000 nM, a TGI (MDA-MB-231 breast) greater than 100000 nM and a TGI (MDA-MB-435) greater than 100000 nM. It also gave a TGI (MDA-N) greater than 100000 nM, a TGI (MOLT-4 leukemia) greater than 100 µM and a TGI (NCI-H226 lung) greater than 100000 nM. The TGI (NCI-H23 lung) was greater than 100000 nM, the TGI (NCI-H460 lung) was greater than 100000 nM and the TGI (NCI-H522 lung) was greater than 100 µM. For the same compound, the TGI (NCI/ADR-RES ovarian) was greater than 100 µM, the TGI (OVCAR-3 ovarian) was greater than 100 µM and the TGI (OVCAR-5 ovarian) was greater than 100000 nM. The TGI (OVCAR-8 ovarian) was greater than 100000 nM, the TGI (PC-3 prostate) was greater than 100000 nM and the TGI (RPMI-8226 leukemia) was greater than 100000 nM. It also gave a TGI (RXF 393 renal) greater than 100000 nM, a TGI (SF-268 CNS) greater than 100000 nM and a TGI (SF-295 CNS) greater than 100000 nM. It also gave a TGI (SF-539 CNS) greater than 100000 nM, a TGI (SK-MEL-2 melanoma) greater than 100000 nM and a TGI (SK-MEL-28 melanoma) greater than 100 µM. For the same compound, the TGI (SK-MEL-5 melanoma) was greater than 100000 nM, the TGI (SK-OV-3 ovarian) was greater than 100000 nM and the TGI (SN12C renal) was greater than 100000 nM. For the same compound, the TGI (SNB-19 CNS) was greater than 100 µM, the TGI (SNB-75 CNS) was greater than 100000 nM and the TGI (SR leukemia) was greater than 100000 nM. It also gave a TGI (SW-620 colon) greater than 100000 nM, a TGI (T-47D breast) greater than 100 µM and a TGI (TK-10 renal) greater than 100 µM. The TGI (U251 CNS) was greater than 100000 nM, the TGI (UACC-257 melanoma) was greater than 100000 nM and the TGI (UACC-62 melanoma) was greater than 100000 nM. It also gave a TGI (UO-31 renal) greater than 100000 nM.
